Measurements reported in ChEMBL document CHEMBL5038665, “Identification of the Benzoimidazole Compound as a Selective FLT3 Inhibitor by Cell-Based High-Throughput Screening of a Diversity Library” (J Med Chem, 2022).
The source made the active and inactive calls. No cut-off for these calls is given here.

Tests used:
[1] = Induction of apoptosis in mouse BaF3 cells assessed as survival population at 1 uM measured after 48 hrs by Annexin V-FITC/propidium iodide staining based flow cytometry(reference value: 96.35 %); format: toxicity, cell-based; conditions: read-out: Activity
[2] = Oral bioavailability in 12 hrs fasted Sprague-Dawley rat at 15 mg/kg by LC-MS analysis; format: ADME, organism-based; conditions: in vivo
[3] = AUC (0-t) in 12 hrs fasted Sprague-Dawley rat at 15 mg/kg, po measured upto 24 hrs by LC-MS analysis; format: ADME, organism-based; set-up: route oral, dose 15 mg/kg, time <=24; conditions: in vivo
[4] = Clearance in 12 hrs fasted Sprague-Dawley rat at 15 mg/kg, po measured upto 24 hrs by LC-MS analysis; format: ADME, organism-based; conditions: in vivo
[5] = Half life in 12 hrs fasted Sprague-Dawley rat at 2 mg/kg, iv measured upto 24 hrs by LC-MS analysis; format: ADME, organism-based; conditions: in vivo
[6] = Cmax in 12 hrs fasted Sprague-Dawley rat at 15 mg/kg, po measured upto 24 hrs by LC-MS analysis; format: ADME, organism-based; set-up: route oral, dose 15 mg/kg, time <=24; conditions: in vivo
[7] = Tmax in 12 hrs fasted Sprague-Dawley rat at 15 mg/kg, po measured upto 24 hrs by LC-MS analysis; format: ADME, organism-based; conditions: in vivo
[8] = tested on: HL-60; experiment: Antiproliferative activity against human HL-60 cells expressing wild type FLT3 assessed as reduction in cell viability measured after 72 hrs by MTS assay; format: functional, cell-based; conditions: HL-60, 72 h
[9] = Antiproliferative activity against mouse BaF3 cells expressing wild type FLT3 assessed as reduction in cell viability measured after 72 hrs by MTS assay; format: toxicity, cell-based
[10] = tested on: MOLM-13; experiment: Antiproliferative activity against human MOLM-13 cells harboring FLT3-ITD mutant assessed as reduction in cell viability measured after 72 hrs by MTS assay; format: functional, cell-based; conditions: MOLM-13, 72 h
[11] = Antiproliferative activity against mouse Ba/F3 FLT3-ITD cells assessed as reduction in cell viability measured after 72 hrs by MTS assay; format: functional, cell-based
[12] = molecular target: Serine/threonine-protein kinase B-raf (Homo sapiens, UniProt P15056); experiment: Inhibition of BRAF (unknown origin)
Chain of Serine/threonine-protein kinase B-raf (P15056 whole entry): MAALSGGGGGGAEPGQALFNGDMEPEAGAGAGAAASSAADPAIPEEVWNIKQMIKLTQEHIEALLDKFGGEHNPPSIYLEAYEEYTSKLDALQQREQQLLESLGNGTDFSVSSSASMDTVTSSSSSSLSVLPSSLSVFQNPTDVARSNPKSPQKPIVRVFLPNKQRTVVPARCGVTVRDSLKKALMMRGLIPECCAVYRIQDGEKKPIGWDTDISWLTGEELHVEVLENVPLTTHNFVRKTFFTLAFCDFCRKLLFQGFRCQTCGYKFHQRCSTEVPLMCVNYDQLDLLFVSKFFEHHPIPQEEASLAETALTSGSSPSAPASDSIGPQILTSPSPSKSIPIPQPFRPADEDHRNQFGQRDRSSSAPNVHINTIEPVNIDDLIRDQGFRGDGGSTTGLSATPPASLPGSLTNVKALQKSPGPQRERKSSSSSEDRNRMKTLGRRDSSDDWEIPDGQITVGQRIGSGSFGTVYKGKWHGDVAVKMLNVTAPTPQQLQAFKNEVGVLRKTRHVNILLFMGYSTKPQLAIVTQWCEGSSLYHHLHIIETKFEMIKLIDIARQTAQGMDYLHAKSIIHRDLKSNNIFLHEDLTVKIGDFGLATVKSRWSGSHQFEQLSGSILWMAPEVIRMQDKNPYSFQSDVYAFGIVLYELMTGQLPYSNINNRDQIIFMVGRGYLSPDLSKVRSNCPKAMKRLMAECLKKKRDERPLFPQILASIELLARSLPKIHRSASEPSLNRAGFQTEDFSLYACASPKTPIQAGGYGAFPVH

[13] = molecular target: Mast/stem cell growth factor receptor Kit (Homo sapiens, UniProt P10721); experiment: Inhibition of KIT (unknown origin)
Chain of Mast/stem cell growth factor receptor Kit (P10721 whole entry): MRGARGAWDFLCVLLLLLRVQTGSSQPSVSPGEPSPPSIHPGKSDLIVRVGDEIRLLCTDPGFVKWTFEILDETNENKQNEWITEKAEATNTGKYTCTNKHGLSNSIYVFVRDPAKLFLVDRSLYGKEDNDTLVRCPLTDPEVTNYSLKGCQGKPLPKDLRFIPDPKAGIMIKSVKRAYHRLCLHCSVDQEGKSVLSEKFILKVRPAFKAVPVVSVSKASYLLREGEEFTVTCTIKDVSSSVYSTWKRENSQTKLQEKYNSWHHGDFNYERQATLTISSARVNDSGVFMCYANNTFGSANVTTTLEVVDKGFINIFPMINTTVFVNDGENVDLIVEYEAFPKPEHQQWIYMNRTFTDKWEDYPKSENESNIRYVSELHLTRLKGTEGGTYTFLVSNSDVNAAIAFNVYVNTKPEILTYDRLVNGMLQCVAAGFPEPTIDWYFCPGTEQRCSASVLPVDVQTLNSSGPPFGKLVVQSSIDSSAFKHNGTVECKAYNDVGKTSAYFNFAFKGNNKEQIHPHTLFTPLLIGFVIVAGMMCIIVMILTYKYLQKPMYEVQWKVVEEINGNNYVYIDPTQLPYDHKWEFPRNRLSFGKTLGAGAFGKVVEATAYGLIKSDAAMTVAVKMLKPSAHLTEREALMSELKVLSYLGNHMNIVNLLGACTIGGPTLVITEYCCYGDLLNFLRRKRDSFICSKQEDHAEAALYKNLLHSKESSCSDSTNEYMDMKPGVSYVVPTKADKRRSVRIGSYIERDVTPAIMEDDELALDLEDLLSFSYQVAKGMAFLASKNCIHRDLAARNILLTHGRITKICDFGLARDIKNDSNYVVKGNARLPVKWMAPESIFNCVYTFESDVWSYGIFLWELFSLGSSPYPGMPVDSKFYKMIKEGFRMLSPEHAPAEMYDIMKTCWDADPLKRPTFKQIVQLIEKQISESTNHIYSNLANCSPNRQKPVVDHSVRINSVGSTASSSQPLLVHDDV

[14] = Induction of apoptosis in mouse Ba/F3 FLT3-ITD cells assessed as survival population at 0.1 uM measured after 48 hrs by Annexin V-FITC/propidium iodide staining based flow cytometry(reference value: 93.99 %); format: functional
[15] = tested on: MOLM-13; experiment: Induction of apoptosis in human MOLM-13 cells assessed as survival population at 0.1 uM measured after 48 hrs by Annexin V-FITC/propidium iodide staining based flow cytometry(reference value: 97.35 %); format: functional
[16] = tested on: MOLM-13; experiment: Induction of apoptosis in human MOLM-13 cells assessed as survival population at 1 uM measured after 48 hrs by Annexin V-FITC/propidium iodide staining based flow cytometry(reference value: 97.35 %); format: functional
[17] = tested on: MV4-11; experiment: Induction of apoptosis in human MV4-11 cells assessed as survival population at 0.1 uM measured after 48 hrs by Annexin V-FITC/propidium iodide staining based flow cytometry(reference value: 98.01 %); format: functional
[18] = molecular target: Receptor-type tyrosine-protein kinase FLT3 (Homo sapiens) (UniProt P36888); experiment: Inhibition of FLT3 phosphorylation in human MV4-11 cells assessed as reduction in phosphorylated FLT3 level measured after 12 hrs by western blot analysis; format: cell-based
Chain of Receptor-type tyrosine-protein kinase FLT3 (Homo sapiens) (P36888 whole entry): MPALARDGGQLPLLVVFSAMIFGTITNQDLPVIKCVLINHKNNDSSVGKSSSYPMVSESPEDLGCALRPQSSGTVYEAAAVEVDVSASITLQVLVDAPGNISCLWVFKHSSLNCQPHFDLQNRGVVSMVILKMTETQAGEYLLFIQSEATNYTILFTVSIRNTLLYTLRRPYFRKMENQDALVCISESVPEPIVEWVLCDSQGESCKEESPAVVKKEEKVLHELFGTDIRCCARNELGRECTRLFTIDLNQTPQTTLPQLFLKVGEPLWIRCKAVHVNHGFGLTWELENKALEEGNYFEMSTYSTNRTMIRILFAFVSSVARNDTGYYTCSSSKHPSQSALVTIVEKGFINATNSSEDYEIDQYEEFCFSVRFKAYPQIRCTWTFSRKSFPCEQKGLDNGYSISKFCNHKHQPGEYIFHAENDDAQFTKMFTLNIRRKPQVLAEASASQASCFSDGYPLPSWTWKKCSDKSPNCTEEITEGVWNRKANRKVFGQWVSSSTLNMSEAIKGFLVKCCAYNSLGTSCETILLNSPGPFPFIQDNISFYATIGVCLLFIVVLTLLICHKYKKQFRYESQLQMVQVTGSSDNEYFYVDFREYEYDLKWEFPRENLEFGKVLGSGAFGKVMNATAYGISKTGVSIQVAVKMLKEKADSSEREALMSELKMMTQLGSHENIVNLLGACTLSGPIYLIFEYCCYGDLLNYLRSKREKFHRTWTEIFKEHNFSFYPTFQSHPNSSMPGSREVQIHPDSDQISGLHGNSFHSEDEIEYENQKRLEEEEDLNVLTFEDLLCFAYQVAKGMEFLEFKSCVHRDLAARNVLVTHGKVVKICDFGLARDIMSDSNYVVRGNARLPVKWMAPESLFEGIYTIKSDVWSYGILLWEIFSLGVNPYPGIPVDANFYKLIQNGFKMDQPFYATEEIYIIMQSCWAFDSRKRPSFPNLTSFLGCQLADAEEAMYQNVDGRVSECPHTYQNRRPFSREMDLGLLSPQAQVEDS

[19] = molecular target: T1, Receptor-type tyrosine-protein kinase FLT3 (Mus musculus) (UniProt Q00342); experiment: Inhibition of FLT3 phosphorylation in mouse Ba/F3 FLT3-ITD cells assessed as reduction in phosphorylated FLT3 level measured after 12 hrs by western blot analysis; format: cell-based
T1 sequence (whole entry): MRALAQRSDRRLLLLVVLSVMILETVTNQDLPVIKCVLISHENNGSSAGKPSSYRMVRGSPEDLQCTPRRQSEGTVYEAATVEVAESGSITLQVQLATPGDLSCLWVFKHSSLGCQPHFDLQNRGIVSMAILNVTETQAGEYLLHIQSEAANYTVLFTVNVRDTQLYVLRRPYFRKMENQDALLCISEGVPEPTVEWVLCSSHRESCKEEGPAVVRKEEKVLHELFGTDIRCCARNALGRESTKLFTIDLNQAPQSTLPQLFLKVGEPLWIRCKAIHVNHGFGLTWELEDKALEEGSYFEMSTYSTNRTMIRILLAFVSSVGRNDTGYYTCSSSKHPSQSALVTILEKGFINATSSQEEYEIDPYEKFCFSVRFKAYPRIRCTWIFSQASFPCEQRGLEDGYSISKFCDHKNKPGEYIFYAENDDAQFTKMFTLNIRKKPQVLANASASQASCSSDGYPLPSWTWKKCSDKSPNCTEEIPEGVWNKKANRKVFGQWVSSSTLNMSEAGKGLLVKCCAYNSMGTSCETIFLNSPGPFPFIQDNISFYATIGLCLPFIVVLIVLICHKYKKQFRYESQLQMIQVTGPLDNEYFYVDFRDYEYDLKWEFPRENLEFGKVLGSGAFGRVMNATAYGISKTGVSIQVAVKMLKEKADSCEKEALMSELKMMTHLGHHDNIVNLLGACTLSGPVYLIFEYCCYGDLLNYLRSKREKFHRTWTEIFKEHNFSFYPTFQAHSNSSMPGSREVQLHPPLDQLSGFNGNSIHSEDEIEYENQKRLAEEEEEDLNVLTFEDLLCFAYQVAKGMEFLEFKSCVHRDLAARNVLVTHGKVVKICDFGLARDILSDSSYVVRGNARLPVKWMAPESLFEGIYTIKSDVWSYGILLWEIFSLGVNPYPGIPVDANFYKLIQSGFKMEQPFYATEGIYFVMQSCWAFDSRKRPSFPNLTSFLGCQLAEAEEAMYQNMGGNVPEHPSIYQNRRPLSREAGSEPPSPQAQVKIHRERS

[20] = Toxicity in Balb/c mouse implanted with mouse Ba/F3 FLT3-ITD cells assessed as inflammatory cell infiltration in spleen at 30 to 100 mg/kg, po administered for 14 days; format: organism-based, BaF3; conditions: in vivo, 336 h, time 14 day
[21] = molecular target: Receptor-type tyrosine-protein kinase FLT3 (Homo sapiens) (UniProt P36888); experiment: Inhibition of FLT3-mediated signalling pathway in human MV4-11 cells assessed as inhibition of STAT5 phosphorylation at 50 nM by western blot analysis; format: cell-based
[22] = molecular target: T1, Receptor-type tyrosine-protein kinase FLT3 (Mus musculus); experiment: Inhibition of FLT3-mediated signalling pathway in mouse Ba/F3 FLT3-ITD cells assessed as inhibition of STAT5 phosphorylation at 1 to 900 nM measured after 12 hrs by western blot analysis; format: cell-based; conditions: dose 1-900 nM
[23] = tested on: MV4-11; experiment: Antitumor activity against human MV4-11 cells xenografted in Balb/c mouse assessed as tumor growth inhibition at 100 mg/kg, po administered for 28 days; format: functional, organism-based; conditions: time 28.0 day
[24] = tested on: MV4-11; experiment: Antitumor activity against human MV4-11 cells xenografted in Balb/c mouse assessed as reduction in tumor weight at 100 mg/kg, po administered for 28 days; format: functional, organism-based; conditions: time 28.0 day
[25] = Antitumor activity against mouse Ba/F3 FLT3-ITD cells implanted in Balb/c mouse assessed as increase in survival time at 30 mg/kg, po administered every 24 hrs (Rvb=14 days); format: functional
[26] = Antitumor activity against mouse Ba/F3 FLT3-ITD cells implanted in Balb/c mouse assessed as increase in survival time at 60 mg/kg, po administered every 24 hrs (Rvb=14 days); format: functional

SMILES: COc1cc(CNc2ccc3c(c2)ncn3-c2ccccc2)ccc1OCCO
- viability at 48 h, 1 µM [1]: 97.7%
- bioavailability [2]: 48.2%
- AUC(0-t) at 24 h [3]: 2890 ng·h/mL
- CL/F [4]: 84.7 mL/min/kg
- half-life [5]: 18.6 min
- Cmax [6]: 440 ng/mL
- Tmax [7]: 39 min
- IC50 [8]: > 50 µM
- IC50 at 72 h [9]: > 0.4 µM
- IC50 [10]: 0.0668 µM
- IC50 [11]: 0.0754 µM
- IC50 [12]: > 1 µM
- IC50 [13]: 0.16 µM
- Activity [14]: 78.45%
- Activity [15]: 83.61%
- Activity [16]: 65.52%
- Activity [17]: 94.26%
- inhibition [18]: Active
- inhibition [19]: Dose-Dependent Effect
- Activity [20]: Non-Toxic
- inhibition [21]: Active
- inhibition [22]: Active
- Activity [23]: Active
- Activity [24]: Active
- Time [25]: 18 days
- Time [26]: 22 days
